Assays:
[1] = tested on: Memory-impaired aged rats; assay: Radial Arm Maze task, 2-hr delay, acute brivaracetam or seletracetam; format: in vivo, rat; settings: 0.0625-4 mg/kg i.p. 30-40 min prior to test sessions; repeated measures ANOVA
Method: (§1) The radial arm maze experiments used acute administration of seletracetam (0-4 mg/kg), brivaracetam (0-4 mg/kg), or saline vehicle given by intraperitoneal injection (in a volume of 1 ml/kg) 30-40 min prior to test sessions. In the chronic treatment experiment, memory-impaired aged rats were implanted subcutaneously in the intrascapular region with osmotic mini-pumps (ALZET, Durect Corporation, Cupertino, Calif.) with brivaracetam (2 mg/kg/day) or saline vehicle starting two weeks prior to assessment in the water maze.
A radial arm maze (RAM) task was used to assess effects of acute drug treatment with seletracetam and brivaracetam. This protocol allowed within-subject assessment across drugs at different doses. The radial maze consisted of eight arms projecting from each side of an octagonal center platform, with a food well located at the distal end of each arm. Plexiglas blocks could be positioned to prevent entry into any arm. Extra-maze cues were provided in the room surrounding the maze and illumination was provided by an overhead light.
Pre-training, as described in detail in Chappell et al. Neuropharmacology 37: 481-487, (1998), consisted of habituation, standard win-shift training, and win-shift training with delays interposed between information and memory test phases. […]

[2] = tested on: Memory-impaired aged rats; assay: water maze probe test after chronic brivaracetam (osmotic mini-pumps); format: in vivo, rat; settings: brivaracetam 2 mg/kg/day, 14 days
Method: as §1
Rats were trained and tested in a novel water maze environment to assess the effect of drug treatment. The water maze used here was housed in a different building and was surrounded by curtains with a novel set of patterns relative to the maze used for initial assessment of cognitive status. The training protocol consisted of 6 trials per day for 2 days to locate a submerged escape platform. On each trial, a rat was released in the maze from one of four equally spaced starting positions around the perimeter of the pool. The starting position varied from trial to trial. […] The rat was then removed from the platform and placed in a holding cage for another 40 s before the next trial. Approximately 24 hr after the last training trial, a probe test in the absence of the escape platform was given to assess spatial memory.

MAM-treated rats = settings: cited from earlier work
[3] = tested on: ventral tegmental dopamine (DA) neurons of MAM rats; settings: cited from earlier work
[4] = tested on: HPC neurons in saline-treated and MAM-treated animals; settings: cited from earlier work

CC[C@@H](C(N)=O)N1C[C@H](C=C(F)F)CC1=O [seletracetam]
number of errors in the retention phase after the 2-hr delay, effect of dose [1]: significant effect as a function of dose

CCC[C@@H]1CC(=O)N([C@@H](CC)C(N)=O)C1 [brivaracetam]
number of errors in the retention phase after the 2-hr delay, effect of dose [1]: significant effect as a function of dose
spatial bias for the target quadrant compared to the other quadrants [2]: significant spatial bias
time in the target annulus vs vehicle-treated rats [2]: significantly more time
time in the target quadrant vs vehicle-treated rats [2]: significantly more time

NC1=N[C@H](O)[C@H]2[C@H]3O[C@]4(O)O[C@@H]([C@@H](O)[C@@]2(N1)[C@@H]4O)[C@]3(O)CO [TTX, tetrodotoxin]
augmented amphetamine-induced locomotor behavior (MAM-treated rats; rat, in vivo): normalized
elevated DA neuron population activity ([3]; rat, in vivo): completely reversed

C#Cc1ccc2c(c1)C(c1ccccc1F)=N[C@H](C)c1c(C(=O)OCC)ncn1-2 [SH-053-2′F—R—CH3]
increased locomotor response to amphetamine in MAM-treated rats (MAM-treated rats; following the α5GABAAR PAM treatment): reduced
cortical-evoked responses of HPC neurons [4]: diminished
number of spontaneously active DA neurons in the ventral tegmental area (VTA) of MAM rats ([3]; administered systemically and directly infused into the ventral HPC): reduces
